Reference: ChEMBL document CHEMBL1629615, “Intrapulmonary pharmacokinetics and pharmacodynamics of posaconazole at steady state in healthy subjects” (Antimicrob Agents Chemother, 2009)

What was measured:
[1] = AUC (0 to 24 hrs) in healthy human plasma at 200 mg, po every 12 hrs for 5 days; type: ADME, organism-based; design: dose 200 mg, time < 24 hr, route oral
[2] = Cmax in healthy human alveolar cell at 200 mg, po every 12 hrs for 5 days; type: ADME, organism-based, Lung, Pneumocyte; design: dose 200 mg, route oral; settings: alveolar cells
[3] = Cmax in healthy human lung epithelial lining fluid assessed as hydroxyitraconazole at 200 mg, po every 12 hrs for 5 days; type: ADME, organism-based; design: dose 200 mg, route oral; settings: in vivo
[4] = Cmax in healthy human plasma at 200 mg, po every 12 hrs for 5 days; type: ADME, organism-based; design: dose 200 mg, route oral
[5] = AUC (0 to 24 hrs) in healthy human alveolar cell at 200 mg, po every 12 hrs for 5 days; type: ADME, organism-based, Pneumocyte; design: time < 24 hr, dose 200 mg, route oral; settings: alveolar cells
[6] = AUC (0 to 24 hrs) in healthy human lung epithelial lining fluid at 200 mg, po every 12 hrs for 5 days; type: ADME, organism-based; design: time < 24 hr, dose 200 mg, route oral

AUC at 24 h [1]: 34400 ng·h/mL
Cmax [2]: 500 ng/mL
Cmax [3]: 5500 ng/mL
Cmax [4]: 2100 ng/mL
AUC at 24 h [5]: 101000 ng·h/mL
AUC at 24 h [6]: 7400 ng·h/mL
SMILES: CCC(C)n1ncn(-c2ccc(N3CCN(c4ccc(OCC5COC(Cn6cncn6)(c6ccc(Cl)cc6Cl)O5)cc4)CC3)cc2)c1=O (stereo unspecified) [ITRACONAZOLE]
